According to paper PMC7647111, “Antileishmanial compounds from Connarus suberosus: Metabolomics, isolation and mechanism of action” (PLoS ONE, 2020):
In brackets after ≈: the same amount, converted by molar mass. Several values for one entry are separate records, joined by “and”; a condition that tells them apart may be missing. Identical values can stand only once. Like-named read-outs stand apart in the source and are kept apart here.

Key:
[1] = test system: L. amazonensis promastigotes; test: Antiproliferation assay: L. amazonensis promastigotes (24 h), resazurin; format: cell-based, Leishmania amazonensis (IFLA/BR/1967/PH8); conditions: Leishmania amazonensis, after 24 h, read-out: IC50 (CI95)
Protocol: (§1) Leishmania amazonensis promastigotes (IFLA/BR/1967/PH8) for the 24 h exposure test were cultivated in RPMI 1640, supplemented with 20% v/v heat inactivated fetal bovine serum (FBS) and incubated at 26°C until near the end of the log growth phase. Leishmania amazonensis (IFLA/BR/1967/PH8) and L. infantum (MCAN/BR/2008/1112) promastigotes used in the 72 h exposure test were cultivated in Warren’s medium (containing brain heart infusion- BHI plus hemin and folic acid), supplemented with 10% FBS, 0.1% of the antibiotics: 100 UI/mL penicillin G and 0.1 mg/mL streptomycin. Leishmania amazonensis (IFLA/BR/1967/PH8) transfected with the red fluorescent protein (RFP) gene was cultured in M199 medium (containing 0.1 mmol/L adenine, 40 mmol/L hepes, 0.0005% hemin and 0.0002% biotin), supplemented with 10% FBS, and 0.1% of the antibiotic. Parasites were maintained at 25°C in a BOD incubator.
Extracts and fractions were tested against L. amazonensis (IFLA/BR/1967/PH8) promastigote cells in a 96-well plate at a concentration of 10^6 cells/well. Each sample was solubilized in DMSO (<1%) since it was not soluble directly in the medium. Extracts were tested at 100 μg/mL and 50 μg/mL. […] Plates were read at 570 nm and 595 nm in a microplate reader (BiochromAsys UVM 340) after cell lysis with sodium dodecyl sulfate (SDS). Viability was calculated based on the equations described by Kulshrestha.

[2] = test system: L. amazonensis amastigotes; test: L. amazonensis amastigotes assay (RFP parasites in peritoneal macrophages); format: cell-based, Leishmania amazonensis (IFLA/BR/1967/PH8); conditions: for IC50: Leishmania amazonensis, Peritoneal macrophage, intracellular; for IC50 / activity against L. amazonensis amastigotes (in words): 72 h
Protocol: Peritoneal macrophages obtained from BALB/c mice were transferred to a 24-well plate (6x10^5 cells/well) in RPMI 1640 medium supplemented with 10% inactivated FBS and 20 mM L-glutamine, pH 7.2. The plate was incubated at 37°C in 5% CO2 for 24 h. After this period, macrophages were infected with L. amazonensis (IFLA/BR/1967/PH8) transfected with RFP in the stationary growth phase using a ratio 1:10 (macrophages/parasites) at 33°C for 4 h. The non-phagocytosed parasites were subsequently removed by extensive PBS wash, and samples added at non-toxic concentrations, in accordance with the cytotoxicity tests (100 μg/mL to 1.56 μg/mL) to determine the IC50 for the intracellular parasite. After 72 h, the supernatant was removed from the wells and 200 μL of deionized water added to each well to lyse the cell membrane. After lysis, the resulting supernatants were transferred to a black 96-well plate. The plate was read in a fluorescence spectrophotometer (FLx800, BioTek Instruments, Inc., Winooski, VT, USA) with 540/600 nm of excitation/emission. Wells containing macrophages infected with L. amazonensis (RFP) […] only were used as negative controls.

Cytotoxicity assay (MTT) = format: cell-based, BALB/c mice; conditions: female, BALB/c, mouse, 72 h exposure
Protocol: Female BALB/c mice pre-inoculated with 3% thioglycollate medium were used to obtain macrophages from the peritoneal cavity. Peritoneal exudate was collected 72 h post-inoculation using cold Hank´s Balanced Salt Solution and the assay performed as previously reported. Briefly, peritoneal macrophages in RPMI 1640 medium were transferred to a 96-well plate (2x10^5 cells/well) and incubated at 37°C in 5% CO2 for 24 h to allow adhesion. Samples were serially diluted (100 μg/mL to 0.78 μg/mL), added to the plate with the cells and incubated under the same conditions for 72 h. MTT (10 μL/well) was subsequently added and the plates re-incubated for a further 2 h. To halt the reaction, 100 μL of acidified isopropanol was added to each well. The plate was then read at 570 nm in a microplate reader (Multiskan MS, LabSystems Oy, Helsinki, Finland).

[3] = test system: L. infantum promastigotes; test: Antiproliferation assay: L. infantum promastigotes (72 h), MTT; format: cell-based, Leishmania infantum (MCAN/BR/2008/1112); conditions: 72 h exposure; for IC50: Leishmania infantum, 72 h
Protocol: as §1
(§2) Extracts and isolated compounds were tested against L. amazonensis promastigotes (IFLA/BR/1967/PH8 strain - 2x10^5 cells/well) and L. infantum promastigotes (MCAN/BR/2008/1112 strain - 3x10^5 cells/well). The samples were solubilized in DMSO (<1%), serially diluted (100 μg/mL to 1.56 μg/mL) and tested in a 96-well plate to obtain a dose-response curve. Miltefosine and DMSO were used as positive and negative controls, respectively. After 72 h, 10 μL of 3-(4,5-dimethylthiazol-2-yl)-2,5-diphenyl tetrazolium bromide (5 mg/mL—MTT, Sigma-Aldrich) solution was added to each well and the plate returned to the incubator for an additional 4 h. To halt the reaction, 100 μL acidified isopropanol was added to each well. Plates were read at 570 nm in a microplate reader (Multiskan MS, LabSystems Oy, Helsinki, Finland).

[4] = test system: L. amazonensis promastigotes; test: Neutral lipid quantification (Nile Red); format: cell-based, Leishmania amazonensis; conditions: 24 h; 2 at 33.8 μM, 3 at 11.4 μM
Protocol: After 24 h of exposure, the parasites (1x10^7 cells/well) were stained with 10 μg/mL Nile Red (Sigma-Aldrich, St. Louis, MO, USA) in the dark for 20 min at 25°C. Fluorescence intensity was analysed in a spectrofluorometer (BioTek Instruments, Inc., Winooski, VT, USA) using 485/528 nm excitation/emission.

[5] = test system: L. amazonensis promastigotes; test: Antiproliferation assay: L. amazonensis promastigotes (72 h), MTT; format: cell-based, Leishmania amazonensis (IFLA/BR/1967/PH8); conditions: 72 h exposure; for IC50: Leishmania amazonensis
Protocol: as §1, §2

[6] = test system: L. amazonensis promastigotes; test: Mitochondrial membrane potential (MitoTracker); format: cell-based, Leishmania amazonensis; conditions: 24 h; 2 at 33.8 μM, 3 at 11.4 μM; FCCP 5.0 μM for 10 min
Protocol: After 24 h of incubation at 25°C, the parasite concentration was adjusted to 5x10^6 cells/mL and stained with 500 nM MitoTracker (Invitrogen, Eugene, OR, USA) in the dark for 40 min at 37°C. After washing twice with PBS, samples were transferred in triplicate to a black 96-well plate, and fluorescence measured in a spectrofluorometer (FLx800, BioTek Instruments, Inc., Winooski, VT, USA) at 540/600 nm excitation/emission. […] Louis, MO, USA) for 10 min were used to obtain maximal mitochondrial depolarization (positive control).

[7] = test system: L. amazonensis promastigotes; test: Cell membrane integrity (propidium iodide); format: cell-based, Leishmania amazonensis; conditions: 24 h; 2 at 33.8 μM, 3 at 11.4 μM
Protocol: Plates were incubated with propidium iodide (PI) (1.0 μg/mL—Sigma-Aldrich, USA, St. Louis, MO, USA) for 15 min in the dark at RT. Fluorescence was measured using a spectrofluorometer (FLx800, BioTek Instruments, Inc., Winooski, VT, USA) with 540/600 nm excitation/emission. Parasites heated at 65 °C were used as the positive control.

[8] = test system: L. amazonensis promastigotes; test: Reactive oxygen species (ROS) detection (H2DCFDA); format: cell-based, Leishmania amazonensis
Protocol: Fluorescence intensity was detected using a fluorimetric microplate reader (FLx800, BioTek Instruments, Inc., Winooski, VT, USA), at 485/528 nm excitation/emission. Promastigotes incubated with miltefosine (44.2 μM) were used as a positive control.

L. infantum amastigotes = L. infantum amastigotes assay (Giemsa, infection index); format: cell-based, Leishmania infantum; conditions: Leishmania infantum; intracellular, 72 h
Protocol: Peritoneal macrophages (6 x 10^5 cells) were plated on round glass coverslips within 24-well plates in RPMI 1640 medium supplemented with FBS and 20 mM L-glutamine, pH 7.2, and incubated for 24 h at 37°C in 5% CO2. Stationary-phase promastigotes (6 x 10^6 cells, at a ratio of 10 parasites per macrophage) were then added to the wells, and cultures incubated for 24 h at 37°C in 5% CO2. Non-internalized parasites were removed by extensive PBS solution washing and infected macrophages subsequently treated with nontoxic concentrations of: compound 3 (6.25 μg/mL to 0.18 μg/mL) or miltefosine (10.0 μg/mL to 0.6 μg/mL, positive control) for 72 h at 37°C in 5% CO2. After compound exposure, cells were fixed with absolute ethanol and stained with Giemsa. A total of 200 macrophages were counted under a light microscope. The infection index was determined by the […] percentage of infected macrophages multiplied by the mean number of amastigotes per macrophage out of 200 macrophages.

[9] = test system: L. amazonensis axenic amastigotes; design: method as in PMID 18849135; conditions: cited from earlier work
[10] = test system: L. amazonensis promastigotes; conditions: cited from earlier work

In the case of C[C@@H]1[C@H](O)[C@@H](C)/C=C/C=C/C=C/C=C/C=C/C=C/C=C/[C@H](O[C@@H]2O[C@H](C)[C@@H](O)[C@H](N)[C@@H]2O)C[C@@H]2O[C@](O)(C[C@@H](O)C[C@@H](O)[C@H](O)CC[C@@H](O)C[C@@H](O)CC(=O)O[C@H]1C)C[C@H](O)[C@H]2C(=O)O [Amphotericin B, reference compound], the IC50 [1] is reported as < 7.8 µg/mL.
In the case of COc1ccc2c(c1)OC1c3ccc4c(c3OCC21)C=CC(C)(C)O4 (centres unmarked) [Compound 1, hemileiocarpin], the IC50 [2] is reported as 10.6 µg/mL and 31.6 µM, the CC50 at 72 h (Cytotoxicity assay (MTT); murine peritoneal macrophages) is reported as > 100 µg/mL and > 297 µM and the IC50 [3] is reported as 20.8 µg/mL and 61.9 µM.
With CC1(C)C=Cc2c(ccc3c2OCC2c4cc5c(cc4OC32)OCO5)O1 (centres unmarked) [Compound 2, leiocarpin] the “increase in neutral lipid levels in relation to the untreated control” value [4] was 86.9%, the “SI (Selectivity Index)” value ([2]; CC50 macrophages / IC50 L. amazonensis amastigotes) was 5.7 and the IC50 [2] was 7.1 µg/mL and 20.4 µM. The CC50 at 72 h (Cytotoxicity assay (MTT); murine peritoneal macrophages) was 39 µg/mL and 116 µM, the IC50 [5] was 11.4 µg/mL and 33.8 µM and the “reduction in mitochondrial membrane potential (ΔΨm)” value [6] was 37.6%. For the same molecule, the “plasma membrane integrity (PI-positive parasites)” value [7] was “significant increase in the percentage of PI-positive parasites”, the ROS level ([8]; 24 h, 2 at 33.8 μM, 3 at 11.4 μM) was “no alteration in the ROS level” and the IC50 [3] was 15.5 µg/mL and 44.3 µM.
With CCCCCCCCCCCCCC1=C(O)C(=O)C=C(O)C1=O [Compound 4, rapanone] the “activity against L. amazonensis amastigotes (in words)” value [2] was “inactive”, the IC50 [2] was > 3.2 µg/mL and > 10.6 µM and the CC50 at 72 h (Cytotoxicity assay (MTT); murine peritoneal macrophages) was 2.9 µg/mL and 9.8 µM. For the same molecule, the “activity against L. amazonensis promastigotes (in words)” value [5] was “inactivity”, the IC50 [5] was 50.4 µg/mL and 169 µM and the “Promastigotes IC50 L. infantum” value [3] was 7.17 ± 0.3 µg/mL. The IC50 [3] was 7.2 µg/mL and 24.5 µM.
In the case of CCCCCCCCCCCC1=C(O)C(=O)C=C(O)C1=O [Compound 5, embelin], the “activity against L. amazonensis amastigotes (in words)” value [2] is reported as “inactive”, the IC50 [2] is reported as > 3.2 µg/mL and > 9.7 µM and the CC50 at 72 h (Cytotoxicity assay (MTT); read-out: Cytotoxicity CC50 Murine macrophages) is reported as 0.9 µg/mL and 2.6 µM. For the same molecule, the IC50 [5] was 12.5 µg/mL and 38.9 µM and the IC50 [3] was 10.7 µg/mL and 33.2 µM.
With CCCCCCCCCCCCCCCC1=C(O)C(=O)C=C(O)C1=O [Compound 6, suberonone] the “activity against L. amazonensis amastigotes (in words)” value [2] was “inactive”, the IC50 [2] was > 3.2 µg/mL and > 8.9 µM and the CC50 at 72 h (Cytotoxicity assay (MTT); murine peritoneal macrophages) was 4.2 µg/mL and 11.7 µM. For the same molecule, the “activity against L. amazonensis promastigotes (in words)” value [5] was “not considered active”, the IC50 [5] was 51.9 µg/mL and 149 µM and the “activity against L. infantum promastigotes (in words)” value [3] was “not considered active”. The IC50 [3] was 37.2 µg/mL and 106 µM.
With N#CC(C#N)=NNc1ccc(OC(F)(F)F)cc1 [FCCP, carbonyl cyanide 4-(trifluoro-methoxyl)phenylhydrazone, reference compound] the “reduction in mitochondrial membrane potential (ΔΨm)” value [6] was 51.6%.
In the case of CCCCCCCCCCCCCCCCOP(=O)([O-])OCC[N+](C)(C)C [Miltefosine, reference compound], the “SI (Selectivity Index)” value [2] is reported as 10.4, the IC50 [2] is reported as 5.2 µg/mL and 12.7 µM and the IC50 [5] is reported as 9 µg/mL and 22.1 µM. The “increase in ROS production” value ([8]; miltefosine 44.2 μM, positive control) was 162.3%, the IC50 [3] was 2.6 µg/mL and 6.5 µM and the IC50 (L. infantum amastigotes) was 3.7 µM.
In the case of CCC(C)C(=O)c1c(O)c(CC=C(C)C)c(O)c2c(-c3ccccc3)cc(=O)oc12 (centres unmarked) [mammea A/BB], the IC50 axenic amastigotes [9] is given as 0.88 µg/mL (≈ 2.16 µM) and the IC50 promastigotes [10] is given as 3 µg/mL (≈ 7.38 µM).
